The values below are quoted from earlier work in patent US20090117102A1, “Methods and compositions using CD3 agonists” (priority 2004, published 2009).

Series [1] deals with T cell. The following applies: Wong Transplantation 50 (1990).
In series [2] the test system is T cell. As to conditions: Van Wauve, J. Immunol. 124 (1980).

Take “OKT3: murine monoclonal antibody specific for the human CD3 antigen, first monoclonal antibody approved by the FDA”: the “T cell killer activity” value in the series with T cell [1] was “potent T cell killer”. For the same substance, the “T cell mitogen activity” value in the series with T cell [2] is given as “potent T cell mitogen”.
